Laboratory results reported in patent publication US20120071505A1, “SUBSTITUTED PYRIDINE DERIVATIVES, PHARMACEUTICAL COMPOSITIONS, AND METHODS OF USE TO TREAT OXIDATIVE STRESS” (HIGH POINT PHARMACEUTICALS, LLC, priority 2009, published 2012).

System: HMOX1 mRNA expression
Assay: Oxidative stress gene expression (mRNA) protocol: heme oxygenase mRNA induction in NHLF cells (Quantigene Plex 2.0, Luminex)
Format: cell-based, human
Conditions: 6 h, normalized to GAPDH, above DMSO treated cells; for Fold Change of HMOX1 mRNA expression (at 3 μM): 3 μM compound; for fold induction at 3.75 µM: Homo sapiens, 3.75 μM compound, read-out: Fold Change of HMOX1 mRNA expression at 3.75 μM; for Fold Change of HMOX1 mRNA expression (at 10 μM): 10 μM compound
Experimental: Oxidative Stress Gene Expression (mRNA) Protocol
Cell Culture. Normal Human Fibroblast (NHLF), were obtained from Lonza. Cultures of cells were maintained in Fibroblast Growth Medium (FGM-2) medium supplemented with 2% fetal bovine serum (FBS), Fibroblast Growth Factor (hFGF-B) 0.5 ml, Insulin 0.5 ml, gentamicin/amphotericin-B 0.5 mL at 37° C. in a humidified atmosphere of 5% CO2. Primary isolates of cell are cultured in T-225 flasks (Corning) as per instructions from the vendor. Cells are grown to 80% confluence before harvesting. Cells are harvested by first washing with 5 mL of Hepes buffered saline solution (Lonza). The buffered salt solution is aspirated and then 5 mL of a solution of Trypsin-EDTA is added to detach the cells from the culture flask. To this mixture 5 mL of Trypsin neutralization solution (Lonza) is added Trypsin. The mixture is centrifuged at 500×g for 10 minutes at 4° C. The cell pellet is resuspended to a final concentration of one million cells per milliliter in fetal bovine serum containing 6% DMSO. The cells are then dispensed into cyrovials and frozen in liquid nitrogen for storage.
Heme oxygenase mRNA expression. Secondary growth of NHLF cells are used for all assays. Cell are thawed and then placed into culture in T225 flasks. The cells are grown to 80% confluency and harvested by washing once with HEPES buffered saline solution and then trypsinized. Equal numbers (7×10^3 cells per well) of NHLF cells were plated in 96 well tissue culture plates (Corning). Cells were incubated overnight in FGM-2 medium prior to exposure to compound. Cells were treated with either DMSO or a compound of the Examples above for 6 h. Preparation of cell lysates was carried out according to instructions using the Quantigene Reagent system 2.0 protocol (Panomics). Heme oxygenase mRNA induction was detected from cell lysate using the Quantigene Plex 2.0 Assay Kit (Panomics) on the Luminex platform (BIO-RAD). Expression of GAPDH mRNA was used as the internal control for the Quantigen Plex 2.0 Assay. The data in Table 1 represents the fold change of heme oxygenase mRNA expression, normalized to control values, above DMSO treated cells.

| Compound | fold induction at 3.75 µM | further results |
| --- | --- | --- |
| CCOC(=O)c1cnc2c(OC)cccc2c1S(=O)(=O)C1CCCCC1 [Example 3, 4-Cyclohexanesulfonyl-8-methoxy-quinoline-3-carboxylic acid ethyl ester] |  | Fold Change of HMOX1 mRNA expression (at 3 μM): 6.7 (at 3 μM) fold |
| CCOC(=O)c1cnc2ccccc2c1S(=O)(=O)C1CCOC1C (centres unmarked) [Example 6, 4-(2-Methyl-tetrahydro-furan-3-sulfonyl)-quinoline-3-carboxylic acid ethyl ester] | 64.7 |  |
| CC1OCCC1S(=O)(=O)c1c(C(=O)OCC2CCCO2)cnc2ccccc12 (centres unmarked) [Example 17, 4-(2-Methyl-tetrahydro-furan-3-sulfonyl)-quinoline-3-carboxylic acid tetrahydro-furan-2-ylmethyl ester] | 7.8 |  |
| CCCS(=O)(=O)c1ccncc1C(=O)OCCCOC [Example 23, 4-(Propane-1-sulfonyl)-nicotinic acid 3-methoxy-propyl ester] | 4.2 |  |
| CCOC(=O)c1cnc2c(OC)cccc2c1S(=O)(=O)c1ccoc1C [Example 4, 8-Methoxy-4-(2-methyl-furan-3-sulfonyl)-quinoline-3-carboxylic acid ethyl ester] | 5.8 |  |
| COCCCOC(=O)c1cnc2c(OC)cccc2c1S(=O)(=O)c1ccoc1C [Example 12, 8-Methoxy-4-(2-methyl-furan-3-sulfonyl)-quinoline-3-carboxylic acid 3-methoxy-propyl ester] | 15.3 |  |
| COc1cccc2c(S(=O)(=O)Cc3ccoc3)c(C(=O)OCC3CCCO3)cnc12 (centres unmarked) [Example 16, 4-(Furan-3-ylmethanesulfonyl)-8-methoxy-quinoline-3-carboxylic acid tetrahydro-furan-2-ylmethyl ester] | 2.3 |  |
| CCCS(=O)(=O)c1cnc2c(OC(F)(F)F)cccc2c1NC1CCCCC1 [Example 32, cyclohexyl-[3-(propane-1-sulfonyl)-8-trifluoromethoxy-quinolin-4-yl]-amine] | 9.8 |  |
| COCC#Cc1cnc2ccccc2c1S(=O)(=O)C1CCOC1C (centres unmarked) [Example 25, 3-(3-methoxy-prop-1-ynyl)-4-(2-methyl-tetrahydro-furan-3-sulfonyl)-quinoline] | 13 |  |
| COCCCOC(=O)c1cnccc1S(=O)(=O)C1CCOC1C (centres unmarked) [Example 21, 4-(2-Methyl-tetrahydro-furan-3-sulfonyl)-nicotinic acid 3-methoxy-propyl ester] |  | Fold Change of HMOX1 mRNA expression (at 10 μM): 6.0 (at 10 μM) fold |
| CCCS(=O)(=O)c1cnc2ccc(OC)cc2c1NC1CCCCC1 [Example 30, cyclohexyl-[6-methoxy-3-(propane-1-sulfonyl)-quinolin-4-yl]-amine] |  | Fold Change of HMOX1 mRNA expression (at 3 μM): 4.0 (at 3 μM) fold |
| COc1cccc2c(S(=O)(=O)C3CCOC3C)c(C(=O)OC3CCCCC3)cnc12 (centres unmarked) [Example 8, 8-Methoxy-4-(2-methyl-tetrahydro-furan-3-sulfonyl)-quinoline-3-carboxylic acid cyclohexyl ester] |  | Fold Change of HMOX1 mRNA expression (at 3 μM): 4.5 (at 3 μM) fold |
| COc1cccc2c(S(=O)(=O)C3CCOC3C)c(C(=O)OCC3CCCO3)cnc12 (centres unmarked) [Example 11, 8-Methoxy-4-(2-methyl-tetrahydro-furan-3-sulfonyl)-quinoline-3-carboxylic acid tetrahydro-furan-2-ylmethyl ester] |  | Fold Change of HMOX1 mRNA expression (at 3 μM): 2.7 (at 3 μM) fold |
| COCCCOC(=O)c1c[n+]([O-])ccc1S(=O)(=O)C1CCOC1C (centres unmarked) [Example 22, 4-(2-Methyl-tetrahydro-furan-3-sulfonyl)-1-oxy-nicotinic acid 3-methoxy-propyl ester] |  | Fold Change of HMOX1 mRNA expression (at 10 μM): 5.6 (at 10 μM) fold |
| CCCC(=O)c1cnc2c(OC)cccc2c1S(=O)(=O)C1CCOC1C (centres unmarked) [Example 7, 1-[8-methoxy-4-(2-methyl-tetrahydro-furan-3-sulfonyl)-quinolin-3-yl]-butan-1-one] |  | Fold Change of HMOX1 mRNA expression (at 10 μM): 2.8 (at 10 μM) fold |
| CC1OCCC1S(=O)(=O)c1c(-c2ccc(C(F)(F)F)cc2)cnc2ccccc12 (centres unmarked) [Example 27, 3-(4-trifluoromethyl-phenyl)-4-(2-methyl-tetrahydro-furan-3-sulfonyl)-quinoline] |  | Fold Change of HMOX1 mRNA expression (at 2.5 μM) (2.5 μM compound): 27.5 (at 2.5 μM) fold |

| Compound | fold induction at 3.75 µM | further results |
| --- | --- | --- |
| CCOC(=O)/C=C/c1cnc2ccccc2c1S(=O)(=O)C1CCOC1C (centres unmarked) [Example 26, (E)-3-[4-(2-methyl-tetrahydro-furan-3-sulfonyl)-quinolin-3-yl]acrylic acid ethyl ester] | 13.2 |  |
| COCCCOC(=O)c1cnc2c(OC)cccc2c1S(=O)(=O)Cc1ccoc1 [Example 13, 4-(Furan-3-ylmethanesulfonyl)-8-methoxy-quinoline-3-carboxylic acid 3-methoxy-propyl ester] | 17.2 |  |
| CCOC(=O)c1cnc2c(OC)cccc2c1S(C)(=O)=O [Example 1, 4-methanesulfonyl-8-methoxy-quinoline-3-carboxylic acid ethyl ester] | 3.4 |  |
| COc1cccc2c(S(=O)(=O)c3ccoc3C)c(C(=O)OCC3CCCO3)cnc12 (centres unmarked) [Example 15, 8-Methoxy-4-(2-methyl-furan-3-sulfonyl)-quinoline-3-carboxylic acid tetrahydro-furan-2-ylmethyl ester] | 4.4 |  |
| CCOC(=O)c1cnc2c(OC)cccc2c1S(=O)(=O)Cc1ccoc1 [Example 5, 4-(Furan-3-ylmethanesulfonyl)-8-methoxy-quinoline-3-carboxylic acid ethyl ester] |  | Fold Change of HMOX1 mRNA expression (at 10 μM): 2.0 (at 10 μM) fold |
| CCCS(=O)(=O)c1cnc2ccc(OC)cc2c1NC1CCCC1 [Example 29, cyclopentyl-[6-methoxy-3-(propane-1-sulfonyl)-quinolin-4-yl]amine] |  | Fold Change of HMOX1 mRNA expression (at 3 μM): 4.0 (at 3 μM) fold |
| COc1cccc2c(S(=O)(=O)c3ccoc3C)c(C(=O)OCC3CCCC3)cnc12 [Example 19, 8-Methoxy-4-(2-methyl-furan-3-sulfonyl)-quinoline-3-carboxylic acid cyclopentylmethyl ester] | 12.6 |  |
| COCCCOC(=O)c1cnc2c(OC)cccc2c1S(=O)(=O)C1CCOC1C (centres unmarked) [Example 10, 8-Methoxy-4-(2-methyl-tetrahydro-furan-3-sulfonyl)-quinoline-3-carboxylic acid 3-methoxy-propyl ester] | 28.5 |  |
| CCOC(=O)c1cnc2c(OC)cccc2c1S(=O)(=O)C1CCOC1C (centres unmarked) [Example 2, 8-Methoxy-4-(2-methyl-tetrahydro-furan-3-sulfonyl)-quinoline-3-carboxylic acid ethyl ester] | 48.6 |  |
| COc1ccc(-c2cnc3ccccc3c2S(=O)(=O)C2CCOC2C)cc1 (centres unmarked) [Example 28, 3-(4-methoxy-phenyl)-4-(2-methyl-tetrahydro-furan-3-sulfonyl)-quinoline] | 12.7 |  |
| CC1OCCC1Sc1cnc2ccccc2c1S(=O)(=O)C1CCOC1C (centres unmarked) [Example 20, 4-(2-methyl-tetrahydro-furan-3-sulfonyl)-3-(2-methyl-tetrahydro-furan-3-ylsulfanyl)-quinoline] | 25.9 |  |
| COc1cccc2c(S(=O)(=O)C3CCOC3C)c(C(=O)OCC3CCCCC3)cnc12 (centres unmarked) [Example 9, 8-Methoxy-4-(2-methyl-tetrahydro-furan-3-sulfonyl)-quinoline-3-carboxylic acid cyclohexylmethyl ester] |  | Fold Change of HMOX1 mRNA expression (at 3 μM): 2 (at 3 μM) fold |
| COCCCOC(=O)c1cnc2ccccc2c1S(=O)(=O)C1CCOC1C (centres unmarked) [Example 14, 4-(2-Methyl-tetrahydro-furan-3-sulfonyl)-quinoline-3-carboxylic acid 3-methoxy-propyl ester] | 52.4 |  |
| CCCS(=O)(=O)c1cnc2c(OC(F)(F)F)cccc2c1NC1CCCC1 [Example 31, cyclopentyl-[3-(propane-1-sulfonyl)-8-trifluoromethoxy-quinolin-4-yl]-amine] |  | Fold Change of HMOX1 mRNA expression (at 3 μM): 4.0 (at 3 μM) fold |
| COCCCOC(=O)c1cnccc1S(=O)(=O)CC1CCCCC1 [Example 24, 4-Cyclohexylmethanesulfonyl-nicotinic acid 3-methoxy-propyl ester] | 5.3 |  |
| CCCCCOC(=O)c1cnc2c(OC)cccc2c1S(=O)(=O)c1ccoc1C [Example 18, 8-Methoxy-4-(2-methyl-furan-3-sulfonyl)-quinoline-3-carboxylic acid pentyl ester] | 10.2 |  |
